In patent publication EP1027361B1, “6,11-BRIDGED ERYTHROMYCIN DERIVATIVES” (Abbott Laboratories, priority 1997, dated 1999):

What was measured:
Assay in all cases: in vitro antibacterial activity, agar dilution MIC
Type in all cases: cell-based
Escherichia coli SS = conditions: organism code RR, BHI agar, 35-37 °C, 20 to 24 hours
Protocol: (§1) Erythromycin A was used for this purpose.
(§2) After incubation, each plate was visually inspected.

[1] = system: Enterococcus faecium ATCC 8043; conditions: organism code II, BHI agar, 35-37 °C, 20 to 24 hours
Protocol: as §1, §2

[2] = system: Staphylococcus aureus NCTC10649M; conditions: organism code EE, BHI agar, 35-37 °C, 20 to 24 hours
Protocol: as §1, §2

[3] = system: Micrococcus luteus ATCC 9341; conditions: organism code OO, BHI agar, 35-37 °C, 20 to 24 hours
Protocol: as §1, §2

[4] = system: Streptococcus Pheumoniae GYR 1171; conditions: organism code YY, BHI agar, 35-37 °C, 20 to 24 hours
Protocol: as §1, §2

Escherichia coli JUHL = conditions: organism code QQ, BHI agar, 35-37 °C, 20 to 24 hours
Protocol: as §1, §2

[5] = system: Nocardia Asteroides ATCC9970; conditions: organism code VV, BHI agar, 35-37 °C, 20 to 24 hours
Protocol: as §1, §2

[6] = system: Micrococcus luteus ATCC 4698; conditions: organism code PP, BHI agar, 35-37 °C, 20 to 24 hours
Protocol: as §1, §2

[7] = system: Haemophilis Influenzae DILL AMP R; conditions: organism code WW, BHI agar, 35-37 °C, 20 to 24 hours
Protocol: as §1, §2

[8] = system: Streptococcus Pheumoniae 5649; conditions: organism code ZZA, BHI agar, 35-37 °C, 20 to 24 hours
Protocol: as §1, §2

[9] = system: Staphylococcus aureus CMX 553; conditions: organism code FF, BHI agar, 35-37 °C, 20 to 24 hours
Protocol: as §1, §2

[10] = system: Staphylococcus epidermidis 3519; conditions: organism code HH, BHI agar, 35-37 °C, 20 to 24 hours
Protocol: as §1, §2

[11] = system: Staphylococcus aureus CMX 642A; conditions: organism code DD, BHI agar, 35-37 °C, 20 to 24 hours
Protocol: as §1, §2

[12] = system: Staphylococcus aureus A5177; set-up: unit not given here; conditions: organism code BB, BHI agar, 35-37 °C, 20 to 24 hours
Protocol: (§3) Representative compounds of the present invention were assayed in vitro for antibacterial activity as follows: Twelve petri dishes containing successive aqueous dilutions of the test compound mixed with 10 mL of sterilized Brain Heart Infusion (BHI) agar (Difco 0418-01-5) were prepared. Each plate was inoculated with 1:100 (or 1:10 for slow-growing strains, such as Micrococcus and Streptococcus) dilutions of up to 32 different microorganisms, using a Steers replicator block. […] In addition, a control plate, using BHI agar containing no test compound, was prepared and incubated at the beginning and end of each test
(§4) An additional plate containing a compound having known susceptibility patterns for the organisms being tested and belonging to the same antibiotic class as the test compound was also prepared and incubated as a further control, as well as to provide test-to-test comparability.
(§5) After incubation, each plate was visually inspected. The minimum inhibitory concentration (MIC) was defined as the lowest concentration of drug yielding no growth, a slight haze, or sparsely isolated colonies on the inoculum spot as compared to the growth control.

[13] = system: Mycobacterium smegmatis ATCC 114; set-up: unit not given here; conditions: organism code UU, BHI agar, 35-37 °C, 20 to 24 hours
Protocol: as §3, §4, §5

[14] = system: Staphylococcus aureus 1775; conditions: organism code GG, BHI agar, 35-37 °C, 20 to 24 hours
Protocol: as §3, §4, §5

[15] = system: Streptococcus pyogenes PIU 2548; conditions: organism code NN, BHI agar, 35-37 °C, 20 to 24 hours
Protocol: as §3, §4, §5

Escherichia coli DC-2 = conditions: organism code SS, BHI agar, 35-37 °C, 20 to 24 hours
Protocol: as §3, §4, §5

[16] = system: Staphylococcus aureus A-5278; conditions: organism code CC, BHI agar, 35-37 °C, 20 to 24 hours
Protocol: as §3, §4, §5

Candida albicans CCH 442 = conditions: organism code TT, BHI agar, 35-37 °C, 20 to 24 hours
Protocol: as §3, §4, §5

[17] = system: Streptococcus pyogenes 930; conditions: organism code MM, BHI agar, 35-37 °C, 20 to 24 hours
Protocol: as §3, §4, §5

[18] = system: Streptococcus Pheumoniae 5979; conditions: organism code ZZ, BHI agar, 35-37 °C, 20 to 24 hours
Protocol: as §3, §4, §5

[19] = system: Streptococcus Pheumoniae ATCC6303; set-up: unit not given here; conditions: organism code XX, BHI agar, 35-37 °C, 20 to 24 hours
Protocol: as §1, §2

[20] = system: Streptococcus bovis A-5169; set-up: unit not given here; conditions: organism code JJ, BHI agar, 35-37 °C, 20 to 24 hours
Protocol: as §1, §2

[21] = system: Streptococcus agalactiae CMX 508; set-up: unit not given here; conditions: organism code KK, BHI agar, 35-37 °C, 20 to 24 hours
Protocol: as §1, §2

[22] = system: Staphylococcus aureus ATCC 6538P; set-up: unit not given here; conditions: organism code AA, BHI agar, 35-37 °C, 20 to 24 hours
Protocol: as §1, §2

[23] = system: Streptococcus pyogenes EES61; set-up: unit not given here; conditions: organism code LL, BHI agar, 35-37 °C, 20 to 24 hours
Protocol: as §1, §2

Row | SMILES | minimum inhibitory concentration (MIC) (Escherichia coli SS) | minimum inhibitory concentration (MIC) [1] | minimum inhibitory concentration (MIC) [2] | minimum inhibitory concentration (MIC) [3] | minimum inhibitory concentration (MIC) [4] | minimum inhibitory concentration (MIC) (Escherichia coli JUHL) | minimum inhibitory concentration (MIC) [5] | minimum inhibitory concentration (MIC) [6] | minimum inhibitory concentration (MIC) [7] | minimum inhibitory concentration (MIC) [8] | minimum inhibitory concentration (MIC) [9] | minimum inhibitory concentration (MIC) [10] | minimum inhibitory concentration (MIC) [11] | minimum inhibitory concentration (MIC) [12] | minimum inhibitory concentration (MIC) [13] | minimum inhibitory concentration (MIC) [14] | minimum inhibitory concentration (MIC) [15] | minimum inhibitory concentration (MIC) (Escherichia coli DC-2) | minimum inhibitory concentration (MIC) [16] | minimum inhibitory concentration (MIC) (Candida albicans CCH 442) | further results
1 | CC[C@H]1OC(=O)[C@H](C)[C@@H](O[C@H]2C[C@@](C)(OC)[C@@H](O)[C@H](C)O2)[C@H](C)[C@@H](O[C@@H]2O[C@H](C)C[C@H](N(C)C)[C@H]2O)[C@@]2(C)C[C@@H](C)C(=O)[C@H](C)[C@H]3N(CCNC(=O)Cc4ccccc4C=CCO2)C(=O)O[C@]13C [Example 6, Compound of Formula (I), 2'-R^p is H, 4"-R^p is H, m is 2, A is NH, B is -C(O)-(CH2)q-, q is 1, D is 1,2-phenylene, E is-(CH2)r-CH=CH-, r is 0, n is 1] | 3.1 | 0.39 | 1.56 | 0.1 | 0.03 | 100 | 0.39 | 0.78 | 8 | 16 | 0.78 | 0.78 | 1.56 | 12.5 | 0.39 | >100 | 12.5 | >100 | >100 | >100 | minimum inhibitory concentration (MIC) [17]: >100; minimum inhibitory concentration (MIC) [18]: >128; minimum inhibitory concentration (MIC) [19]: 0.03; minimum inhibitory concentration (MIC) [20]: 0.1; minimum inhibitory concentration (MIC) [21]: 0.1; minimum inhibitory concentration (MIC) [22]: 0.78; minimum inhibitory concentration (MIC) [23]: 0.2
2 | CC[C@H]1OC(=O)[C@H](C)[C@@H](O[C@H]2C[C@@](C)(OC)[C@@H](O)[C@H](C)O2)[C@H](C)[C@@H](O[C@@H]2O[C@H](C)C[C@H](N(C)C)[C@H]2O)[C@@]2(C)C[C@@H](C)C(=O)[C@H](C)[C@H]3N(CCCCO2)C(=O)O[C@]13C [Example 15, Compound of Formula (I), R^p is H, m is 3, A is absent, B is absent, D is absent, E is absent, n is 1] | 3.1 | 0.1 | 0.78 | 0.05 | 0.03 | >100 | 0.1 | 0.39 | 32 | 16 | 0.39 | 0.39 | 0.39 | 3.1 | 1.56 | >100 | 6.2 | >100 | >100 | >100 | minimum inhibitory concentration (MIC) [17]: >100; minimum inhibitory concentration (MIC) [18]: >128; minimum inhibitory concentration (MIC) [19]: 0.03; minimum inhibitory concentration (MIC) [20]: 0.05; minimum inhibitory concentration (MIC) [21]: 0.05; minimum inhibitory concentration (MIC) [22]: 0.39; minimum inhibitory concentration (MIC) [23]: 0.1
3 | CC[C@H]1OC(=O)[C@H](C)[C@@H](O[C@H]2C[C@@](C)(OC)[C@@H](OC(C)=O)[C@H](C)O2)[C@H](C)[C@@H](O[C@@H]2O[C@H](C)C[C@H](N(C)C)[C@H]2O)[C@@]2(C)C[C@@H](C)C(=O)[C@H](C)[C@H]3N(CCNCc4cccc(c4)C=CCO2)C(=O)O[C@]13C [Example 10, Compound of Formula (I), 2'-R^p is H, 4"-R^p is acetyl, m is 2, A is NH, B is-(CH2)q-, q is 1, D is 1,3-phenylene, E is-(CH2)r-CH=CH-, r is 0, n is 1] | 6.2 | 0.78 | 6.2 | 0.39 | 0.25 | >100 | 1.56 | 1.56 | 64 | 8 | 6.2 | 6.2 | 6.2 | 25 | 0.39 | 100 | 6.2 | >100 | 100 | >100 | minimum inhibitory concentration (MIC) [17]: 25; minimum inhibitory concentration (MIC) [18]: 64; minimum inhibitory concentration (MIC) [19]: 0.12; minimum inhibitory concentration (MIC) [20]: 0.39; minimum inhibitory concentration (MIC) [21]: 0.39; minimum inhibitory concentration (MIC) [22]: 6.2; minimum inhibitory concentration (MIC) [23]: 0.78
